{"source": "patent US12486253B2", "about": "“Therapeutics for the degradation of mutant BRAF” (C4 THERAPEUTICS, INC., priority 2021, dated 2025)", "key": {"ERK phosphorylation": {"system": "ERK phosphorylation", "assay": "Western blot of ERK phosphorylation in A375 cells expressing NRAS^Q61K", "type": "cell-based", "conditions": "24 hours"}, "SALL4": {"molecular_target": "T1, SALL4 (Homo sapiens, UniProt Q9UJQ4)", "T1 construct": "endogenously expressing SALL4 with HiBiT fusion tag via CRISPR; endogenous in cells; host or cells: KELLY.2 (from KELLY, DSMZ ACC-No. 355)", "assay": "SALL4 protein levels after treatment", "type": "cell-based", "conditions": "various concentrations"}, "A375 tumors": {"system": "A375 tumors", "assay": "In vivo efficacy in A375 xenografts", "parameters": "species or system BALB/c nude mice"}, "ARAF": {"molecular_target": "ARAF (Homo sapiens, UniProt P10398)", "sequence (P10398 whole entry)": "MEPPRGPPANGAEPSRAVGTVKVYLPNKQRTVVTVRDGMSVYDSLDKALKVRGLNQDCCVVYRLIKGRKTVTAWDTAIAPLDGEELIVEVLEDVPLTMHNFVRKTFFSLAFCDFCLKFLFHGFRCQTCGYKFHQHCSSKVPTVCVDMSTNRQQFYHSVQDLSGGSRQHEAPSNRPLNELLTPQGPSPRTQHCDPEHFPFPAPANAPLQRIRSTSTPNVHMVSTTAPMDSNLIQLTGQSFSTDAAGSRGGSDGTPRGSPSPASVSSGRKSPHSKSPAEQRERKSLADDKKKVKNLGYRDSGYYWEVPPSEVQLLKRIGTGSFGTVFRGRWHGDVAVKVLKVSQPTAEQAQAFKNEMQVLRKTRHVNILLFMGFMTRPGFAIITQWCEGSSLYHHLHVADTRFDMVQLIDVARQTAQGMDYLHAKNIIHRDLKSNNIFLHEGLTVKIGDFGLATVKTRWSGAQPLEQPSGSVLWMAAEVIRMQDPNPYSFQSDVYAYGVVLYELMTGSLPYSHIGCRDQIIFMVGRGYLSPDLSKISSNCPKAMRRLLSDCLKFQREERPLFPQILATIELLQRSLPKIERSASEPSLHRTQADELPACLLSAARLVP", "assay": "Global proteomics profiling, JURKAT cells", "type": "cell-based", "parameters": "endogenous in cells; host or cells: JURKAT, ATCC TIB-152 (A11.2)", "conditions": "300 nM, 24 hours", "protocol": "(§1) Each cell line was treated in duplicate with either DMSO or Compound 157 (final concentration 300 nM) for 24 hours in an incubator at 37° C. with 5% CO2. After the 24-hour incubation, cells were harvested, washed twice with PBS, and snap frozen in liquid nitrogen. Samples were re-suspended in lysis buffer [8 M urea, 50 mM HEPES (pH 8.5), 50 mM NaCl, 1× protease inhibitor cocktail] and lysed by sonication at 4° C. with 85% amplitude in a pulse setting with 30 seconds on and 30 seconds off for a total sonication time of 5 minutes. Lysates were centrifuged at maximum speed for 10 minutes at 4° C. and the supernatant collected, reduced for 1 hour at room temperature with 5 mM TCEP, and the cysteine residues were then alkylated with 15 mM iodoacetamide (room temperature, in dark, 30 minutes). Protein content was extracted by methanol-chloroform precipitation and subsequent ice-cold acetone washes. Protein pellets were resuspended in 8 M urea, 50 mM HEPES (pH 8.5) buffer and protein concentrations were measured by BCA assay. […]\n(§2) For peptide tandem mass tag (TMT) labeling, 100 μg of peptides per sample was prepared at […] concentration in 200 mM HEPES (pH 8.5), 30% acetonitrile (ACN) and each the specific TMT reagent. […] TMT reporter ion intensities were quantified by extracting the signal-to-noise ratio for each. […]"}, "HCT-116": {"system": "HCT-116", "assay": "HCT-116 cell growth", "type": "cell-based", "conditions": "HCT-116, mutant KRAS driven, WT BRAF"}, "BRAF V600E": {"molecular_target": "BRAF V600E (Homo sapiens, UniProt P15056, V600E)", "sequence (P15056 whole entry V600E)": "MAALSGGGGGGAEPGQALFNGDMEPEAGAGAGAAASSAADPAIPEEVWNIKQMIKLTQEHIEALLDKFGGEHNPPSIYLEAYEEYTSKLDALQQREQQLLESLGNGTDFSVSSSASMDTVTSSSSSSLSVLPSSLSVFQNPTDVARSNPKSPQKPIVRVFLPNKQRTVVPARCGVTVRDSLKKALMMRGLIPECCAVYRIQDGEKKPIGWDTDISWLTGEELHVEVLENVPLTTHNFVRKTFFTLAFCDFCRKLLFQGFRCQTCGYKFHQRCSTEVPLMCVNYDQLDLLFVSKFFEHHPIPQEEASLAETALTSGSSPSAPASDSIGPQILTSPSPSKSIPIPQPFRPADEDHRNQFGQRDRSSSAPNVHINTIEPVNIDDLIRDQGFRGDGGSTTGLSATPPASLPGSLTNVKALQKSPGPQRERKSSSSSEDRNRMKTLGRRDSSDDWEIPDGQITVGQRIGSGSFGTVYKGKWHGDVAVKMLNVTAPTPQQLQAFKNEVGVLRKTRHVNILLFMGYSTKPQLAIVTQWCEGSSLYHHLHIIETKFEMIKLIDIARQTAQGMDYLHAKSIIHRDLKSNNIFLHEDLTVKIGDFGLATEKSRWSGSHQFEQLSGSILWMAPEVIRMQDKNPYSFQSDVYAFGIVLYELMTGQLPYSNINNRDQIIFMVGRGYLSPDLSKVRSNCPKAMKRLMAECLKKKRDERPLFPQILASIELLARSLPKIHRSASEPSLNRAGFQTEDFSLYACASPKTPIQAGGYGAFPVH", "assay": "HiBiT cellular BRAF^V600E degradation assay", "type": "cell-based"}, "[1]": {"assay": "Body weight change in the A375 xenograft study", "type": "in vivo, BALB/c nude mice", "conditions": "all doses, PO, A375 tumor-bearing mice", "protocol": "The efficacy study was conducted in female BALB/c nude mice bearing A375 tumors. Female BALB/c nude mice were inoculated subcutaneously in the right flank with A375 tumor cells (5×10^6) in 0.2 mL of PBS supplemented with Matrigel (at a 1:1 ratio) for tumor development. Tumor volume was measured twice weekly in two dimensions using calipers, and volume (mm^3) was calculated using the formula: V=0.5 a×b^2 where a and b are the long and short diameters of the tumor in mm, respectively. Once the tumors reached an average tumor volume of 246 mm^3 (16 days after implantation), the animals were divided randomly into groups of 6, stratified to result in about equal average tumor sizes in each treatment group and treatment began on Day 0.\nAll agents were administered to mice bearing A375 tumors orally (PO), daily (QD; encorafenib), twice a day (BID) or three times a day (TID) for Compound 157, for 21 or 35 days. encorafenib was dosed at 35 mg/kg and Compound 157 at 0.1, 0.3, 1, 3 or 10 mg/kg twice a day or 2 mg/kg three times a day. Compound 157 was formulated in 20% PEG400+80% (25% SBECD). Body weight and MTV were measured on a 2× weekly schedule and reported as Mean±SEM."}, "BRAF (wild type)": {"molecular_target": "T2, BRAF (wild type) (Homo sapiens, UniProt P15056)", "T2 construct": "host or cells: JURKAT", "T2 sequence (P15056 whole entry)": "as the sequence (P15056 whole entry V600E) above, with E600V counted along it", "assay": "Global proteomics profiling, JURKAT cells", "type": "cell-based", "conditions": "300 nM, 24 hours", "protocol": "as §1, §2"}}, "note": "“Also recorded” adds a separate entry of the source. Where two headings read alike, the source gives them in different places."}
{"smiles": "CCN(C)S(=O)(=O)Nc1ccc(F)c(Oc2ccc3ncn([C@H]4COC5(CCN(C(=O)CC6(O)CCN(c7cc8c(cc7F)c(N7CCC(=O)NC7=O)nn8C)CC6)CC5)C4)c(=O)c3c2)c1C#N", "note": "[Compound 157, (3R)-3-[6-[2-cyano-3-[[ethyl(methyl)sulfamoyl]amino]-6-fluorophenoxy]-4-oxoquinazolin-3-yl]-8-[2-[1-[3-(2,4-dioxo-1,3-diazinan-1-yl)-5-fluoro-1-methylindazol-6-yl]-4-hydroxypiperidin-4-yl]acetyl]-1-oxa-8-azaspiro[4.5]decane]", "values": [{"measurement": "ERK phosphorylation, in combination with trametinib", "setting": "ERK phosphorylation; with 1 nM trametinib", "value": "completely suppressed"}, {"measurement": "ERK phosphorylation, alone", "setting": "ERK phosphorylation; without trametinib", "value": "can suppress MAPK signaling"}, {"measurement": "SALL4 protein levels", "setting": "SALL4", "value": "steady"}, {"measurement": "efficacy compared with encorafenib", "setting": "A375 tumors; oral delivery", "value": "more efficacious than a clinically relevant dose of encorafenib"}, {"measurement": "tumor response", "setting": "A375 tumors; oral, 10 mg/kg BID", "value": "profound tumor regressions"}, {"measurement": "ARAF protein level change", "setting": "ARAF", "value": "unchanged"}, {"measurement": "effect on cell growth", "setting": "HCT-116", "value": "no effect; also recorded: no impact on cell growth"}, {"measurement": "BRAF protein degraded", "setting": "BRAF V600E", "value": 74, "unit": "%"}, {"measurement": "HiBit 24 h Emax", "setting": "BRAF V600E", "value": 27.48, "unit": "%"}, {"measurement": "Emax", "setting": "BRAF V600E; A-375, read-out: Emax BRAF^V600E degradation", "value": 26, "unit": "%"}, {"measurement": "Emax", "setting": "BRAF V600E; read-out: HiBit 24 h Emax", "value": "~25", "unit": "%"}, {"measurement": "Mean body weight loss throughout the study", "setting": "[1]", "value": "≤ 3.5", "unit": "%"}, {"measurement": "BRAF protein level change", "setting": "BRAF (wild type)", "value": "unchanged"}]}
